PMC7041978 (The Journal of Veterinary Medical Science, 2020)
Entries after “also recorded” stand apart in the source; their conditions may differ.

Tests used:
[1] = tested on: human foreskin fibroblasts (HFF); experiment: Host cell cytotoxicity assay; format: cell-based; conditions: for Host cell inhibition (%): 10 µM compounds, HFF cells, 48 hr; for IC50: Homo sapiens, HFF, 48 h, read-out: IC50 for host cell
[2] = tested on: Toxoplasma gondii RH-2F strain; experiment: Parasite growth assay; format: cell-based; conditions: for IC50 / inhibition at 10 µM: Toxoplasma gondii, 48 h; for IC50: read-out: IC50 for parasite growth; for inhibition at 10 µM: HFF, read-out: Parasite inhibition (%)
[3] = tested on: Toxoplasma gondii RH-2F intracellular tachyzoites; experiment: Intracellular parasite growth assay; format: cell-based; conditions: added after 2-hr invasion, 48 hr
Toxoplasma gondii = conditions: cited from earlier work

| Compound | Host cell inhibition (%) [1] [%] | IC50 [1] [µM] | IC50 [2] [µM] | inhibition at 10 µM [2] [%] | Inhibition of intracellular parasite growth ([3]; 10 µM) | further results |
| --- | --- | --- | --- | --- | --- | --- |
| CC(C)=CC[C@H](O)C1=CC(=O)c2c(O)ccc(O)c2C1=O [Alkannin] | −0.3 | 5.4 | 1.3 | 86.9 |  | Host cell inhibition (%) ([1]; listed as alkannin): did not kill the host cells |
| O=c1cc(-c2ccccc2)oc2cc(O)c(O)c(O)c12 [Baicalein] | 3.3 | > 50 | 5 | 80.1 | effectively inhibited the intracellular parasite growth | Host cell inhibition (%) ([1]; listed as baicalein): did not kill the host cells; Inhibition of intracellular parasite growth ([3]; 10 µM, listed as baicalein): effectively inhibited intracellular parasite growth |
| COc1ccc2cc3[n+](cc2c1OC)CCc1cc2c(cc1-3)OCO2 [Berberine Chloride] | −3.0 | 2.8 | 2.2 | 85.5 |  | Host cell inhibition (%) ([1]; listed as berberine chloride): did not kill the host cells |
| c1c2c(cc3c1OCO3)-c1cc3ccc4c(c3c[n+]1CC2)OCO4 [Coptisine Chloride] | 6.4 | > 50 | 2.1 | 73.3 |  | Host cell inhibition (%) ([1]; listed as coptisine chloride): did not kill the host cells; Dose dependence of parasite growth inhibition ([2]; high concentrations, data not shown): did not inhibit parasite growth in a dose-dependent manner |
| O=c1cc(-c2ccc(O)c(O)c2)oc2cc(O)cc(O)c12 [Luteolin] |  | > 50 | 5.7 | 74.3 | effectively inhibited the intracellular parasite growth |  |
| CCc1nc(N)nc(N)c1-c1ccc(Cl)cc1 [Pyrimethamine, reference compound] |  |  |  |  | inhibited the intracellular growth | Selectivity indexes (SI) (Toxoplasma gondii): 0.21 |
| CC(C)=CC[C@@H](O)C1=CC(=O)c2c(O)ccc(O)c2C1=O [Shikonin] | 43.4 | 17.8 | 1.4 | 87.3 |  | Host cell inhibition (%) ([1]; listed as shikonin): did not kill the host cells; also recorded: killed some of the host cells |
| C[C@H]1CC[C@@]2(OC1)O[C@H]1C[C@H]3[C@@H]4CC[C@@H]5C[C@@H](O[C@@H]6O[C@H](CO)[C@H](O)[C@H](O)[C@H]6O[C@@H]6O[C@H](CO)[C@@H](O)[C@H](O)[C@H]6O)CC[C@]5(C)[C@H]4CC[C@]3(C)[C@H]1[C@@H]2C [Timosaponin A-III] | 98.3 |  |  | 81.4 |  | Host cell inhibition (%) ([1]; listed as timosaponin A-III): killed almost all of the host cells |
| Nc1ccc(S(=O)(=O)Nc2ncccn2)cc1 [sulphadiazine] |  |  |  |  |  | Selectivity indexes (SI) (Toxoplasma gondii): 0.29 |
| dextran sulfate [reference compound] |  |  |  |  |  | Inhibition of intracellular parasite growth ([3]; 25 mg/ml): hardly affected the intracellular parasites |
